Earlier results, collected in US8945526B2, “Amphiphilic substance, and drug delivery system and molecular imaging system using the same” (Shimadzu Corporation, priority 2006, dated 2015).

Settings: ICG singly administered

Question: Which “removal from the body” value does the source give for `CC1(C)C(/C=C/C=C/C=C/C=C2\N(CCCCS(=O)(=O)O)c3ccc4ccccc4c3C2(C)C)=[N+](CCCCS(=O)(=O)[O-])c2ccc3ccccc3c21` [ICG, indocyanine green] here?
Answer: The value was “removed from a body in one hour”.
